The text below walks through data of patent US20260199514A1, “PRODRUG STRATEGY THAT ENHANCES EFFICACY AND LOWERS SYSTEMIC TOXICITY OF MERTANSINE” (priority 2022, published 2026).

One data set has as its system NCI-H929 MM Cells. Description: In vitro cytotoxicity assay (CCK-8). The class given is cell-based, human. The note with it: NCI-H929 cell line. The procedure: Next, we evaluated the efficacy of liposomal DM1-Prodrug formulations against MM cells in vitro. For this, NCI-H929 cells were incubated with NP[Prodrug], TNP[Prodrug], free DM1-Prodrug or free drug for 24 h, 48 h and 72 h, and cell viability was determined using cell counting kit-8 (CCK-8) reagent. […] The differences in the IC50 values between free drug and the nanoparticles is possibly attributed to the release kinetics of active DM1 from nanoparticles.
Cell Culture. NCI-H929 cells were purchased from ATCC (Rockville, MD). Cells were cultured in RPMI 1640 media (Corning, NY). The cell line was supplemented with 20% fetal bovine serum (FBS), 2 mM L-Glutamine (Gibco, CA), 100U/mL penicillin (Gibco, CA), 100 μg/mL streptomycin (Gibco) and 55 μM 2-mercaptoethanol.
Cytotoxicity Assays. 15×10^3 cells/well were plated 24 h prior to each experiment in a 96-well plate. The following day, cells were treated with respective cytotoxic agents at varying concentrations. Cytotoxicity was assessed at 24 h, 48 h and 72 h using Cell Counting Kit-8 Reagent via reading absorbance at 450 nm. Viability was normalized to wells containing untreated cells.

The next data set has as its system NCI-H929 cells. As to the kind of experiment: Apoptosis assay (Annexin-V / PI staining). The class given is cell-based, human. The note with it: 20 nM equivalence of DM1, 24 h, Annexin-V and PI.
A short description of data set [1]: Maximum tolerated dose (MTD) study in healthy mice. The class given is in vivo. The settings on record: healthy NOD-SCID mice. The procedure: When mice were injected with free DM1 at a dose over 0.5 mg/kg twice on days 0 and 3, we observed that all animals lost over 15% of their body weight and were morbid before the end of the week (FIG. 5). […] We concluded that liposomal prodrug formulations made treatment with DM1 possible in comparison to free DM1, where its intense systemic toxicity made it a non-viable treatment option. With this approach of liposomal prodrug formulation, even the non-targeted formulations already achieved an improved therapeutic index for DM1.
Maximum Tolerated Dose (MTD) Study. […] Free drug (DM1) was administered according to the recommendations of the manufacturer. Briefly, Free drug treatments were prepared by dissolving in 10% DMSO and 90% saline containing (20% Hydroxypropyl-β-cyclodextrin as excipient) and then administered intravenously into mice.

Procedure for NCI-H929 cells: NCI-H929 cells were incubated with 20 nM equivalence of DM1 concentration either in the form of one of the liposomal prodrug formulations, or the free drug for 24 h.
Apoptosis Assay. NCI-H929 cells were cultured in the presence of 20 nM of DM1 equivalent concentrations of NP[Prodrug], TNP[Prodrug], and free drug for 24 h. Cells were washed and stained using the Dead Cell Apoptosis Kit by following and optimizing the manufacturer's protocol. Briefly, cells were washed with cold PBS, resuspended in 1X binding buffer, followed by Annexin-V and PI staining for 30 min at room temperature. Staining was performed by adding 7 μL of Alexa Fluor® 488 Annexin-V and 8 μL of 100 μg/mL PI working solution to each 100 μL of cell suspensions. Cells in treatment groups and untreated control were stained with Annexin-V and PI. Fluorescent microscopy images were acquired by using an EVOS® FL Auto Imaging System.

Consider `COc1cc2cc(c1Cl)N(C)C(=O)C[C@H](OC(=O)[C@H](C)N(C)C(=O)CCS)[C@]1(C)O[C@H]1[C@H](C)[C@@H]1C[C@@](O)(NC(=O)O1)[C@H](OC)/C=C/C=C(\C)C2` [free DM1, Mertansine], for which the half-maximal inhibitory concentration (IC50) in the data set on NCI-H929 MM Cells (24 hours) was 12 nM; with NCI-H929 MM Cells (72 hours) it was 9 nM. The “induction of apoptosis of MM cells” value in the data set on NCI-H929 cells was “induce apoptosis”. Moreover, the body weight loss entry in data set [1] (dose over 0.5 mg/kg twice on days 0 and 3) was “over 15%”. In addition, the “toxicity / side-effects in MTD study” value in data set [1] (injections on days 0 and 3, equivalent DM1 doses (nanoparticles up to 4 mg/kg)) is recorded as “morbid”.
